The values that follow come from PMC3284452, “Decreased defluorination using the novel beta-cell imaging agent [^18F]FE-DTBZ-d4 in pigs examined by PET” (EJNMMI Research, 2011).

The target of series [1] is T1, VMAT2 (Homo sapiens, UniProt Q05940).
T1 construct: tissue preparations were isolated from human pancreata and homogenized; from tissue; host or cells: human pancreas: endocrine (80% to 85% islets) and exocrine tissue homogenates
Also noted: method as in PMID 20346875. As to conditions: human islet homogenate, described previously; cited from earlier work.

Series [2] has as its system VMAT2. More on the design: method as in PMID 20346875. As to conditions: cited from earlier work.
On the set-up of series [3]: method as in PMID 20346875. As to conditions: piglet model, PET/CT 90 min after tracer administration; cited from earlier work.
Series [4] in a line: Estimation of tracer defluorination by kinetic modeling of cortical bone uptake. The class given is in vivo, piglets. As to conditions: for half-life: male, Swedish landrace, pig, intravenous; for half-life / kdefluorination, average / kdefluorination: plasma; for half-life / t1/2 (defluorination) / kdefluorination, average / kdefluorination: piglets. From the text: Since the studies on [^18F]FE-DTBZ had been performed previously without metabolite correction analysis, we decided to quantify the defluorination retroactively by kinetic modeling of the cortical bone uptake. When modeling the PK/PD of a PET tracer, we generally study the relationship between three different functions (Equation 1) which we can express in a vector form; the input function [Cinput], the transfer function [HTR], and the output function [Ctissue] were defined as follows: […]
The gradual accumulation of radioactivity in the cortical bone tissue starting around 5 min after administration was assumed to consist entirely of [^18F]F^- uptake. It is difficult to delineate the cortical bone structures in the spinal column due to its relative small thickness even if isocontour thresholding is used. Partial volume effects [PVEs] will still yield kinetics containing contributions from both the cortical bone and bone marrow. […] To reduce the contribution from non-cortical sources, VOIs over the bone marrow were drawn, and the associated kinetics was subtracted from the cortical isocontour VOIs. The resulting kinetics after this operation was assessed to describe [^18F]F^- PK/PD in the cortical bone tissue and used as the output curve Ctissue for the quantification of tracer defluorination.
The Cinput of [^18F]F^- is in this specific case not created by an instantaneous bolus, but rather from a gradual reaction where [^18F]FE-DTBZ or [^18F]FE-DTBZ-d4 is the substrate and [^18F]F^- is the product. The rate of defluorination can then be expressed in a single parameter kdefluorination if we assume that the reaction is concentration-dependent and unchanging over time (or during the time frame investigated here). Cin is then uniquely determined from the arterial blood plasma curve [Cp] and kdefluorination (Equation 3): […]
The defluorination rate constant in plasma can then be determined by minimizing Equation 4: […]
All optimization was performed using MatLab 7.8.0 (MathWorks, Inc., Natick, MA, USA).

The nature of series [5]: Quantification of pancreatic uptake by one-tissue compartment model. The class given is in vivo, piglets. As to conditions: pancreas; for Kp: male, Swedish landrace, pig, intravenous; for K1, average / k2, average / K1 / k2: defluorination-corrected plasma input. From the text:
A one-tissue compartment model was used to estimate the compound parameter VT as well as the tissue specific rate constants K1 to k2 in the pancreas. The Cp was used as an input function, corrected for tracer metabolism by defluorination parameter kdefluorination determined from cortical bone uptake. The kinetic parameters were estimated by the PMOD modeling module PKIN.

How the values of series [6] were obtained: Arterial blood and plasma samples were measured using the well-counter. The animals were positioned with a field of view as in the [^18F]FE-DTBZ-d4 dynamic scan.
Tissue volumes of interest [VOIs] and regions of interest [ROIs] were delineated on CT images or partially summed PET images. The kinetic uptake in the cortical bone tissue for all three tracers was assessed by generating isocontour VOIs over the lumbar vertrebral bodies in CT images.
The HTR is given in Equation 2, where φ1, φ2, θ1, and θ2 are macro-parameters determined by the rate constants K1, k2, k3, and k4 [18]. VT and VS denote the total and specific binding distribution volumes, respectively:
The [^18F]F^- HTR in the cortical bone was determined by the kinetic modeling module PKIN for PMOD.

Series [7] in a line: PET/CT biodistribution in piglets. The class given is in vivo. The protocol:
Male Swedish landrace piglets (n = 4, 15 to 17 kg, 11 to 14 weeks old) were anesthetized by Zoletil forte (Virbac, Carros Cedex, France). The animals were intubated and placed on a ventilator, and the anesthesia was maintained by 2.5% sevofluran. Normoglycemia was confirmed by determining blood glucose content (plasma glucose concentration 4.4 to 7.6 mM). The animal experiments were approved by the local ethics committee for animal research and performed in accordance with local institutional and Swedish national rules and regulations.
The PET/CT studies were performed using a Discovery ST scanner (General Electric, Milwaukee, WI, USA). All scans were acquired in 2D mode and reconstructed by OSEM iterative algorithm. Four piglets were administered 3.4 to 16.3 MBq/kg [^18F]FE-DTBZ-d4 as an intravenous [i.v.] bolus, and the biodistribution as well as the kinetics of the tracer in the abdomen was studied with a dynamic sequence over 90 min (the head first, prone, 4 frames × 30 s, 3 × 1 min, 5 × 3 min and 14 × 5 min). Arterial blood samples were acquired during the first 90 min, and both the plasma- and whole blood volume-corrected tracer contents were measured using the well counter. A whole-body PET/CT examination was performed 100 to 120 min post-administration.
The data in this study was compared to previously published PK/PD porcine data on non-deuterated [^18F]-FE-DTBZ. For details on the methodologies used in this study, see Eriksson et al..
PET and CT images were analyzed by PMOD (PMOD Technologies Ltd., Zürich, Switzerland). Values are given as means ± standard error of the mean [SEM] unless otherwise stated, and statistics are based on Student's t test.

Series [8] concerns VMAT2. Nature of the series: In vitro homogenate saturation binding (human endocrine and exocrine pancreatic tissue homogenates). As to conditions: human islet vs exocrine homogenates. The method, then: Endocrine (n = 4, 80% to 85% islets) or exocrine (n = 4) tissue preparations were isolated from human pancreata and homogenized in 50 mM tris(hydroxymethyl)aminomethane [TRIS] by a Polytron PT3000 homogenator (Kinematica AG, Littau, Switzerland). The tissue homogenates (0.5 to 6 mg/mL) were incubated in 1 mL of 50 mM TRIS with different concentrations of tracer around an expected dissociation constant Kd of 3 nM. The non-displaceable binding was determined by addition of 10 to 20 μM tetrabenazine (BIOTREND Chemikalien GmbH, Cologne, Germany).
All samples were incubated at RT for 60 min to reach an equilibrium and then moved onto a 1.2 μm Whatman filter (Brandel, Gaithersburg, MD, USA; pretreated with 0.05% polyethylenimine for > 1 h) by a C-48 cell harvester (Brandel, Gaithersburg, MD, USA). The filter components associated to each group were pooled and measured in a well counter (Uppsala Imanet AB, GE Healthcare, Uppsala, Sweden). Tissue samples and references were prepared in triplicates, and filter binding controls, in duplicates.
Tissue protein content (in milligram protein per sample) was assessed by a Bio-Rad Protein Assay (Bio-Rad, Hercules, CA, USA), and absorbance was measured with an EL808 microplate reader (BioTek, Winooski, VT, USA). The BP, defined as the ratio between the receptor density [Bmax] and dissociation constant [Kd], was determined by nonlinear regression.

Series [9] can be described thus: Radiochemical stability of formulated product (analytical HPLC). The class given is physicochemical. As to conditions: for up to 5 h. The protocol: The radiochemical purity, identity, and stability of [^18F]FE-DTBZ-d4 were determined by analytical HPLC using a reverse-phase μBondapak column (C18, 3.9 Ø × 300 mm, 10 μm, Waters Corporation) with mobile phase CH3CN/10 mM H3PO4 (15:85) and a flow rate of 3 mL/min. The effluent was monitored with an UV absorbance detector (λ = 214 nm) coupled with a radioactive detector (β-flow, Beckman Coulter, Inc., Fullerton, CA, USA). The identity of [^18F]FE-DTBZ-d4 was confirmed by co-injection with the authentic nonradioactive FE-DTBZ-d4.

The mark [10] stands for this setting: average, read-out: t1/2 (defluorination), average.
[11] abbreviates: read-out: Half-life stability against defluorination.
[12] abbreviates: individual experiments, [^18F]FE-DTBZ from retrospective analysis of earlier data.
Where [13] appears, read: mean ± SEM as given in text/footnote.
Where [14] appears, read: cortical spinal bone, average of 3 pigs.
[15] abbreviates: cortical spinal bone, individual pigs.
The mark [16] stands for this setting: cortical spinal bone, mean ± SEM as given in text.

Values joined by “and” are separate entries in the source; they are usually repeats but may differ in a detail not shown here. Equal values may be shown once. Read-outs that look alike come from different tables or passages of the source. Where only a bound is given, the exact number is not on record here.

T1 sequence (Q05940 whole entry): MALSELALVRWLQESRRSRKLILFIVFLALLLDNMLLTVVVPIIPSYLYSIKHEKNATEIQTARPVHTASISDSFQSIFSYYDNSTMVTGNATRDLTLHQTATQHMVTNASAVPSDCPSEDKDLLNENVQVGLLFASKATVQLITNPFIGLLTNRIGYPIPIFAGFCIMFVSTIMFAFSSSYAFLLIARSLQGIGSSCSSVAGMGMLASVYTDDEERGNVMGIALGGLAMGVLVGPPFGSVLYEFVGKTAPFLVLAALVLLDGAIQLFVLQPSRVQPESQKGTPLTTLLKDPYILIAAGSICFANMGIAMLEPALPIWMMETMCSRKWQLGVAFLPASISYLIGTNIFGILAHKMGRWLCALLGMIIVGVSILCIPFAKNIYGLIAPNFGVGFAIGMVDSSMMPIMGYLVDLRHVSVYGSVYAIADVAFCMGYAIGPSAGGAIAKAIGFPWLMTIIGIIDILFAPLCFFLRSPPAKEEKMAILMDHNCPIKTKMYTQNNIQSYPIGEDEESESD

For the compound `COc1cc2c(cc1OCC[18F])CCN1CC(CC(C)C)C(O)CC21` (centres unmarked) [[^18F]FE-DTBZ], the BPislet at VMAT2 [1] was 110.4 femtomoles per milligram protein per nanoMolar. Besides, in the series on VMAT2 [2] (from previously described BP values), the BPislet/BPexocrine ratio was 11.2. In addition, the BPexocrine with VMAT2 [2] (human exocrine homogenate, described previously) is on record as 9.8 femtomoles per milligram protein per nanoMolar. Also, the “Spinal column uptake at the end of the experiments” value in [3] is on record as 3.1 SUV. Besides, the half-life in series [4] (setting [10]) was 1.06 h; in series [4] (individual experiments, read-out: t1/2 (defluorination)) it was 0.77 h; in series [4] (setting [11]), more than 1 h. For the same compound, in series [4] (individual experiments), the “t1/2 (defluorination)” value is 1.46 h and 0.952 h. Besides, the “kdefluorination, average” value in series [4] (average) is 0.0002 s⁻¹. Besides, the kdefluorination is 0.00025 s⁻¹ and 0.000132 s⁻¹ and 0.0002023 s⁻¹ in series [4] (setting [12]); 0.0002 ± 3.3e-05 s⁻¹ in [4] (setting [13]). The Kp in series [5] (average, read-out: VT, average) stood at 4.17; in series [5] (individual experiments, read-out: VT (total distribution volume, K1/k2)), 3.39. Also, the “K1, average” value in series [5] (average) is recorded as 0.26 (cc/min)/cc. In addition, the “k2, average” value in [5] (average) was found to be 0.064 min⁻¹. In addition, in series [5] (individual experiments), the K1 was 0.27 (cc/min)/cc and 0.30 (cc/min)/cc and 0.20 (cc/min)/cc. Moreover, in series [5] (individual experiments), the k2 is 0.08 min⁻¹ and 0.07 min⁻¹ and 0.04 min⁻¹. In addition, the “VT (total distribution volume, K1/k2)” value in [5] (individual experiments) was 4.47 cc/cc and 4.65 cc/cc.

Take `[18FH]` [[^18F]F^-, Fluorine-18 fluoride]: in series [6] (cortical spinal bone model, average of 3 pigs), the “Plasma delay, average” value was 25.67 s. Moreover, the Plasma delay in [6] (cortical spinal bone model, individual pigs) was 25.6 s and 23.5 s and 27.9 s. In series [6] (setting [14]), the “K1, average” value is given as 0.57 (cc/min)/cc; the “VS, average” value turned out to be 27.53 cc/cc; the “VS/VT, average” value was found to be 0.99; the “VT, average” value is reported as 27.9 cc/cc. Moreover, in [6] (setting [14]), the “k2, average” value came out at 1.54 min⁻¹; the “k3, average” value was 0.42 min⁻¹; the “k4, average” value was found to be 0.0058 min⁻¹. Besides, in series [6] (setting [15]), the K1 is 0.71 (cc/min)/cc and 0.44 (cc/min)/cc and 0.56 (cc/min)/cc; the “VS (specific binding distribution volume)” value is 35.9 cc/cc and 19.8 cc/cc and 26.9 cc/cc; the VS/VT is on record as 0.99; the “VT (total distribution volume)” value was 36.4 cc/cc and 20.1 cc/cc and 27.2 cc/cc. For the same compound, in [6] (setting [15]), the k2 was 1.27 min⁻¹ and 1.78 min⁻¹ and 1.57 min⁻¹; the k3 was 0.39 min⁻¹ and 0.5 min⁻¹ and 0.38 min⁻¹; the k4 was 0.0061 min⁻¹ and 0.0062 min⁻¹ and 0.0051 min⁻¹. Further, in series [6] (setting [16]), the k3 stood at 0.42 ± 0.04 min⁻¹ and the k4 is 0.0058 ± 0.0004 min⁻¹. In addition, the “Signal coming from the nonspecific or free tracer” value in series [6] (cortical spinal bone, model prediction) is “less than 1%”.

Consider `COc1cc2c(cc1OCCF)CCN1C[C@@H](CC(C)C)[C@H](O)C[C@H]21` [[^18F]FE-DTBZ-d4, (2R,3R,11bR)-9-(2-fluoroethoxy)-3-isobutyl-10-methoxy-2,3,4,6,7,11b-hexahydro-1H-pyrido[2,1-a]isoquinolin-2-ol], for which the “Bile tracer and metabolites” value in [7] (i.v. bolus) is recorded as more than 10 SUV. Further, in [7] (i.v. bolus, 90 min), the “Pancreas uptake after 90 min” value is reported as 1.8 SUV. Also, in [7] (i.v. bolus, shortly after administration), the “Pancreas average peak uptake” value worked out at 2.64 SUV. Also, the “Spinal column vertebrae VOIs uptake” value in series [7] (within the initial minutes, no further accumulation) is 1.4 SUV. Moreover, the BPislet/BPexocrine ratio with VMAT2 [8] is recorded as 16. In [4] (setting [10]), the half-life is 7.23 h. Further, in [4] (setting [11]), the half-life is more than 6 h. Also, the “t1/2 (defluorination)” value in [4] (individual experiments) is 7.312 h and 27.507 h and 3.292 h and 13.13 h. In addition, the “kdefluorination, average” value in series [4] (average) is 2.67e-05 s⁻¹. Moreover, in series [4] (setting [12]), the kdefluorination was 2.67e-05 s⁻¹ and 7e-06 s⁻¹ and 5.83e-05 s⁻¹ and 1.47e-05 s⁻¹. For the same compound, in series [4] (setting [13]), the kdefluorination is 2.67e-05 ± 1.2e-05 s⁻¹. Besides, the “Increase in half-life stability” value in [4] (vs non-deuterated analogue) is “six fold increase”. In series [9], the “Radiochemical purity of the formulated product (stability)” value is given as more than 98%. For the same compound, the Kp in series [5] (average, read-out: VT, average) came out at 3.69. For the same compound, in [5] (average), the “K1, average” value was 0.81 (cc/min)/cc and the “k2, average” value is 0.26 min⁻¹. In addition, in series [5] (individual experiments), the K1 is 0.65 (cc/min)/cc and 1.09 (cc/min)/cc and 1.13 (cc/min)/cc and 0.36 (cc/min)/cc; the k2 was 0.32 min⁻¹ and 0.25 min⁻¹ and 0.37 min⁻¹ and 0.10 min⁻¹; the “VT (total distribution volume, K1/k2)” value is 2.05 cc/cc and 4.39 cc/cc and 3.06 cc/cc and 3.64 cc/cc.
